Where “and” joins values, the source holds several entries; their conditions need not be identical. Equal values may be shown once.
Tests used:
Mus musculus [1] = assay: Effect on survival of CD1 mice (Mus musculus) infected with Plasmodium berghei KBG173 at 2 mg/kg/day, perorally; type: functional; conditions: route oral
Plasmodium falciparum [2] = assay: microbe, parasite or virus in culture; conditions: TM91C235
Description: (§1) Antimalarial activity against Plasmodium falciparum TM91C235

Plasmodium falciparum [3] = assay: microbe, parasite or virus in culture; conditions: D6
Description: (§2) Antimalarial activity against Plasmodium falciparum D6

Plasmodium falciparum [4] = assay: microbe, parasite or virus in culture; conditions: W2
Description: (§3) Antimalarial activity against Plasmodium falciparum W2

Mus musculus [5] = assay: Effect on survival of CD1 mice (Mus musculus) infected with Plasmodium berghei KBG173 at 4 mg/kg/day, peroral; type: functional; conditions: route oral
PBMC [6] = assay: Selectivity index, IC50 for PBMC/IC50 for Plasmodium falciparum TM91C235; type: functional
UO-31 = assay: Antiproliferative activity against human UO31 cell line after 48 hrs; type: functional; conditions: Homo sapiens, UO-31, 48 h; for CC50: read-out: LC50 (the source's name)
PBMC [7] = assay: Cytotoxicity against PHA-stimulated human PBMC; type: functional, cell-based
Liver microsomes = assay: Intrinsic clearance in human liver microsomes; type: ADME, Microsome
EKVX = assay: Antiproliferative activity against human EKVX cell line after 48 hrs; type: functional; conditions: Homo sapiens, EKVX, 48 h
[8] = Half life in human liver microsomes; type: ADME, Microsome
PBMC [9] = assay: Cytotoxicity against human peripheral blood mononuclear cells; type: functional, cell-based
Plasmodium falciparum [10] = system: Plasmodium falciparum
Description: as §3

PBMC [11] = assay: Selectivity index, IC50 for PBMC/LC50 for UO31 cells; type: functional
PBMC [12] = assay: Selectivity index, IC50 for PBMC/IC50 for Plasmodium falciparum D6; type: functional
786-0 = assay: Antiproliferative activity against human 786-0 cell line after 48 hrs; type: functional; conditions: 786-0, 48 h
PBMC [13] = assay: Selectivity index, IC50 for PBMC/IC50 for Plasmodium falciparum W2; type: functional
Mus musculus [14] = species on record: Mus musculus; assay: Intrinsic clearance in mouse liver microsomes; type: ADME, Microsome
Plasmodium falciparum [15] = system: Plasmodium falciparum; remark: listed apart in the source
Description: as §2

[16] = Half life in mouse liver microsomes; type: ADME, Microsome
LOX IMVI = assay: Antiproliferative activity against human LOX IMVI cell line after 48 hrs; type: functional; conditions: for CC50: read-out: LC50 (the source's name)
Plasmodium falciparum [17] = system: Plasmodium falciparum; remark: listed apart in the source
Description: as §1

RPMI-8226 = assay: Antiproliferative activity against human RPMI8226 cell line after 48 hrs; type: functional
CAKI-1 = assay: Antiproliferative activity against human CAKI1 cell line after 48 hrs; type: functional; conditions: CAKI-1, 48 h
NCI-H460 = assay: Antiproliferative activity against human NCI-H460 cell line after 48 hrs; type: functional; conditions: NCI-H460, 48 h
Vero [18] = assay: Selectivity index, IC50 for VERO cells/IC50 for Plasmodium falciparum D6; type: functional
Vero [19] = assay: Selectivity index, IC50 for VERO cells/LC50 for UO31 cells; type: functional
Mus musculus [20] = assay: Effect on survival of CD1 mice (Mus musculus) infected with Plasmodium berghei KBG173 at 600 mg/kg/day, perorally; type: functional, organism-based; parameters: route oral; conditions: route oral
NCI-H23 = assay: Antiproliferative activity against human NCI-H23 cell line after 48 hrs; type: functional; conditions: NCI-H23, 48 h
IGROV-1 = assay: Antiproliferative activity against human IGROV1 cell line after 48 hrs; type: functional; conditions: Homo sapiens, IGROV-1, 48 h; for CC50: read-out: LC50 (the source's name)
Vero [21] = assay: Selectivity index, IC50 for VERO cells/IC50 for Plasmodium falciparum W2; type: functional
HOP-62 = assay: Antiproliferative activity against human HOP62 cell line after 48 hrs; type: functional; conditions: Homo sapiens, HOP-62, 48 h
Vero [22] = assay: Cytotoxicity against VERO cells; type: functional, cell-based; conditions: Chlorocebus sabaeus
SF-268 = assay: Antiproliferative activity against human SF268 cell line after 48 hrs; type: functional; conditions: SF-268, 48 h
COLO 205 = assay: Antiproliferative activity against human COLO 205 cell line after 48 hrs; type: functional; conditions: Homo sapiens, COLO 205, 48 h
ACHN = assay: Antiproliferative activity against human ACHN cell line after 48 hrs; type: functional; conditions: Homo sapiens, ACHN, 48 h
TK-10 = assay: Antiproliferative activity against human TK10 cell line after 48 hrs; type: functional; conditions: TK-10, 48 h
Mus musculus [23] = assay: Effect on survival of CD1 mice (Mus musculus) infected with Plasmodium berghei KBG173 at 50 mg/kg/day, perorally; type: functional; conditions: route oral
Mus musculus [24] = assay: Effect on survival of CD1 mice (Mus musculus) infected with Plasmodium berghei KBG173 at 200 mg/kg/day, perorally; type: functional; conditions: route oral
SF-539 = assay: Antiproliferative activity against human SF539 cell line after 48 hrs; type: functional; conditions: SF-539, 48 h
SK-MEL-28 = assay: Antiproliferative activity against human SK-MEL28 cell line after 48 hrs; type: functional; conditions: SK-MEL-28, 48 h
[25] = read-out: LC50 (the source's name)

Q: For `CCN(CC)CCCC(C)Nc1ccnc2cc(Cl)ccc12` (configuration not stated) [CHLOROQUINE], which Activity (Mus musculus [1]) is on record?
A: 12.8 days

Q: What about the IC90 (Plasmodium falciparum [2]) of the same compound?
A: 269 nM

Q: And the IC90 (Plasmodium falciparum [3])?
A: 17.6 nM

Q: What about the IC90 (Plasmodium falciparum [4]) of the same compound?
A: 492 nM

Q: What about the Activity (Mus musculus [5]) of the same compound?
A: 25.6 days

Q: Which results are given for `CC(=O)O[C@H]1C[C@H]2[C@@H]([C@H](OC(C)=O)C[C@@H]3CC4(CC[C@@]32C)OOC2(CCC(C(=O)Nc3ccccc3)CC2)OO4)[C@@H]2CC[C@H]([C@H](C)CCC(=O)Nc3ccccc3)[C@@]12C` (stereo in doubt; 13)?
A: Selectivity index (PBMC [6]): >25000; GI50 (UO-31): 50 nM; TGI (UO-31): 190 nM; CC50 (UO-31): 510 nM; IC50 (PBMC [7]): > 200000 nM; CL (Liver microsomes): < 0.6 mL/min/g; GI50 (EKVX): 900 nM; LC50 (EKVX): > 100000 nM; TGI (EKVX): > 100000 nM; half-life [8]: > 2 h; IC50 (PBMC [9]): > 200000 nM; IC50 (Plasmodium falciparum [10]): 11.4 nM; IC90 (Plasmodium falciparum [10]): 20.8 nM; Selectivity index (PBMC [11]): >392; Selectivity index (PBMC [12]): >33000; GI50 (786-0): 450 nM; LC50 (786-0): 67900 nM; TGI (786-0): 14200 nM; Selectivity index (PBMC [13]): >18000; CL (Mus musculus [14]): < 0.6 mL/min/g; IC50 (Plasmodium falciparum [15]): 6.2 nM; IC90 (Plasmodium falciparum [15]): 11.3 nM; half-life [16]: > 2 h; GI50 (LOX IMVI): 370 nM; TGI (LOX IMVI): 1690 nM; CC50 (LOX IMVI): 7150 nM; IC50 (Plasmodium falciparum [17]): 8.1 nM; IC90 (Plasmodium falciparum [17]): 19.2 nM

Q: Which TGI (RPMI-8226; Homo sapiens, RPMI-8226, 48 h) does the source give for `CCCC(=O)CC[C@@H](C)[C@H]1CC[C@H]2[C@@H]3[C@H](OC(C)=O)C[C@@H]4CC5(CC[C@]4(C)[C@H]3C[C@H](OC(C)=O)[C@]12C)OOC1(CCCCC1)OO5` here?
A: 3470 nM

Q: What about the CC50 (RPMI-8226; [25]) of the same compound?
A: 1280 nM and 9370 nM

Q: And the GI50 (CAKI-1)?
A: 180 nM

Q: What about the TGI (CAKI-1) of the same compound?
A: 400 nM

Q: What about the CC50 (CAKI-1; [25]) of the same compound?
A: 910 nM

Q: And the GI50 (NCI-H460)?
A: 180 nM

Q: What about the TGI (NCI-H460) of the same compound?
A: 590 nM

Q: What about the CC50 (NCI-H460; [25]) of the same compound?
A: 2600 nM

Q: What about the Selectivity index (Vero [18]) of the same compound?
A: 823

Q: And the GI50 (UO-31)?
A: < 10 nM

Q: And the TGI (UO-31)?
A: < 10 nM

Q: What about the CC50 (UO-31) of the same compound?
A: 17 nM

Q: And the Selectivity index (Vero [19])?
A: 726

Q: What about the Activity (Mus musculus [20]) of the same compound?
A: 28 days

Q: What about the GI50 (NCI-H23) of the same compound?
A: 610 nM

Q: And the TGI (NCI-H23)?
A: 1990 nM

Q: And the CC50 (NCI-H23; [25])?
A: 4640 nM

Q: What about the GI50 (IGROV-1) of the same compound?
A: 190 nM

Q: What about the TGI (IGROV-1) of the same compound?
A: 460 nM

Q: What about the CC50 (IGROV-1) of the same compound?
A: 1360 nM

Q: What about the Selectivity index (Vero [21]) of the same compound?
A: 1763

Q: And the GI50 (HOP-62)?
A: 440 nM

Q: What about the TGI (HOP-62) of the same compound?
A: 1720 nM

Q: And the CC50 (HOP-62; [25])?
A: 5400 nM

Q: And the IC50 (Vero [22])?
A: 12300 nM

Q: And the GI50 (SF-268)?
A: 1570 nM

Q: What about the TGI (SF-268) of the same compound?
A: 3900 nM

Q: And the CC50 (SF-268; [25])?
A: 9680 nM

Q: And the GI50 (COLO 205)?
A: 1770 nM

Q: And the TGI (COLO 205)?
A: 3720 nM

Q: And the CC50 (COLO 205; [25])?
A: 7820 nM

Q: What about the GI50 (ACHN) of the same compound?
A: 1340 nM

Q: And the LC50 (ACHN)?
A: 5120 nM

Q: What about the TGI (ACHN) of the same compound?
A: 2620 nM

Q: What about the GI50 (TK-10) of the same compound?
A: 1670 nM

Q: And the TGI (TK-10)?
A: 3620 nM

Q: And the CC50 (TK-10; [25])?
A: 7840 nM

Q: And the IC50 (Plasmodium falciparum [3])?
A: 14.8 nM

Q: What about the Activity (Mus musculus [23]) of the same compound?
A: 14.2 days

Q: What about the IC50 (Plasmodium falciparum [4]) of the same compound?
A: 6.8 nM

Q: What about the Activity (Mus musculus [24]) of the same compound?
A: 24.4 days

Q: For `CC(=O)O[C@H]1C[C@H]2[C@@H]([C@H](OC(C)=O)C[C@@H]3CC4(CC[C@@]32C)OOC2(CCC(C(N)=O)CC2)OO4)[C@@H]2CC[C@H]([C@H](C)CCC(N)=O)[C@@]12C` (stereo in doubt; 7), which CL (Liver microsomes) is on record?
A: 3.4 mL/min/g

Q: What about the half-life [8] of the same compound?
A: 0.35 h

Q: And the IC50 (Plasmodium falciparum [10])?
A: 17.1 nM

Q: And the IC90 (Plasmodium falciparum [10])?
A: 34.4 nM

Q: What about the GI50 (786-0) of the same compound?
A: 1690 nM

Q: What about the LC50 (786-0) of the same compound?
A: 8080 nM

Q: And the TGI (786-0)?
A: 3700 nM

Q: What about the CL (Mus musculus [14]) of the same compound?
A: 1.59 mL/min/g

Q: What about the IC50 (Plasmodium falciparum [15]) of the same compound?
A: 11 nM

Q: What about the IC90 (Plasmodium falciparum [15]) of the same compound?
A: 17.3 nM

Q: What about the half-life [16] of the same compound?
A: 0.633 h

Q: And the GI50 (LOX IMVI)?
A: 1850 nM

Q: And the TGI (LOX IMVI)?
A: 3950 nM

Q: And the CC50 (LOX IMVI)?
A: 8420 nM

Q: And the IC50 (Plasmodium falciparum [17])?
A: 11.8 nM

Q: And the IC90 (Plasmodium falciparum [17])?
A: 56.7 nM

Q: Which results are given for `CC(=O)O[C@H]1C[C@H]2[C@@H]([C@H](OC(C)=O)C[C@@H]3CC4(CC[C@@]32C)OOC2(CCC(C(=O)NCCN(C)C)CC2)OO4)[C@@H]2CC[C@H]([C@H](C)CCC(=O)NCCN(C)C)[C@@]12C` (stereo in doubt; 11)?
A: GI50 (SF-539): 1470 nM; TGI (SF-539): 2990 nM; CC50 (SF-539; [25]): 9930 nM; CL (Liver microsomes): < 0.6 mL/min/g; GI50 (IGROV-1): 900 nM; TGI (IGROV-1): 2620 nM; CC50 (IGROV-1): 13400 nM; half-life [8]: > 2 h; IC50 (Plasmodium falciparum [10]): 113 nM; IC90 (Plasmodium falciparum [10]): 126 nM; GI50 (SK-MEL-28): 1920 nM; TGI (SK-MEL-28): 11300 nM; CC50 (SK-MEL-28; [25]): 37000 nM; CL (Mus musculus [14]): < 0.6 mL/min/g; IC50 (Plasmodium falciparum [15]): 75.6 nM; IC90 (Plasmodium falciparum [15]): 94.1 nM; half-life [16]: > 2 h; GI50 (LOX IMVI): 1180 nM; TGI (LOX IMVI): 2820 nM; CC50 (LOX IMVI): 19900 nM; IC50 (Plasmodium falciparum [17]): 81.4 nM; IC90 (Plasmodium falciparum [17]): 110 nM

Source: ChEMBL document CHEMBL1138055, “Tetraoxane antimalarials and their reaction with Fe(II)” (J Med Chem, 2006)
